Results published in patent EP4772510A2, “BENZAZEPINONE COMPOUND AND USE THEREOF” (HANGZHOU BIO-SINCERITY PHARMA-TECHCO., LTD., priority 2023, dated 2025).

Tests used:
[1] = Pharmacokinetic experiment in SD rats; details: p.o, 5 mg/kg vs i.v, 0.5 mg/kg
Experimental: (§1) Example 59: Pharmacokinetic Experiment of Compounds in SD Rats
(§2) SD rats, male, 6-8 weeks old, purchased from Zhejiang Vital River Laboratory Animal Technology Co., Ltd., production license No.: SCXK (Zhejiang) 2019-0001. The animals were maintained in an SPF-grade animal room of Hangzhou Bio-Sincerity Pharma-Tech Co., Ltd., with the experimental animal use license No. of SYXK (Zhejiang) 2021-0014. The animals were used after being acclimatized for at least one week. All experiments were performed in strict compliance with the regulations on experimental animals.
(§3) Four hours after administration, food was provided.
(§4) After administration to SD rats, about 300 µL of blood was collected from the orbit of each animal and anticoagulated with EDTA-Na2. […] The collected blood was placed in an ice bath and centrifuged within 1 h to separate plasma (centrifugation conditions: 2000× g, 10 min, 4 °C). 50 µL of plasma sample was taken, subjected to protein precipitation, and then assayed by UHPLC-MS. The assay data were analyzed and processed using WinNonLin8.1 pharmacokinetic software to obtain pharmacokinetic parameters.

U937 cells = experiment: Inhibition of TNF-α-induced necroptosis of U937 cells (CCK-8 assay); format: cell-based, human; details: 18 h
Procedure, shortened: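 U937 cells (3.6 × 10^4/well) rested 6 h, then exposed to TNF-α 20 ng/mL, BV6 2 µM and Z-VAD-FMK 20 µM plus compound (8-point 3-fold series, 1000–0.46 nM, duplicate) for 18 h. Viability by CCK-8, absorbance at 450 nm after 2-4 h at 37 °C; EC50 calculated.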

in vivo = details: rat
Experimental: as §1, §2, §3, §4

[2] = Homo sapiens, U-937, TNF-α 20 ng/mL + BV6 2 µM + Z-VAD-FMK 20 µM
[3] = male, SD, plasma, intravenous, 0.5 mg/kg
[4] = male, SD, plasma, oral, 5 mg/kg
[5] = TNF-α 20 ng/mL + BV6 2 µM + Z-VAD-FMK 20 µM

Row | Molecule | Fabs (%) [1] [%] | EC50 (U937 cells; [2]) [nM] | AUC(0-t) (in vivo; [3]) [ng·h/mL] | Cmax (in vivo; [3]) [ng/mL] | clearance (in vivo; [3]) [mL/min/kg] | half-life (in vivo; [3]) [h] | AUC(0-t) (in vivo; [4]) [ng·h/mL] | CL/F (in vivo; [4]) [mL/min/kg] | Cmax (in vivo; [4]) [ng/mL] | half-life (in vivo; [4]) [h] | AUC(0-t) (in vivo; in vivo, iv, 0.5 mg/kg) [ng·h/mL] | Cmax (in vivo; in vivo, iv, 0.5 mg/kg) [ng/mL] | clearance (in vivo; in vivo, iv, 0.5 mg/kg) [mL/min/kg] | half-life (in vivo; in vivo, iv, 0.5 mg/kg) [h] | AUC(0-t) (in vivo; in vivo, po, 5 mg/kg) [ng·h/mL] | CL/F (in vivo; in vivo, po, 5 mg/kg) [mL/min/kg] | Cmax (in vivo; in vivo, po, 5 mg/kg) [ng/mL] | half-life (in vivo; in vivo, po, 5 mg/kg) [h] | EC50 (U937 cells; [5]) [nM]
1 | CN1C(=O)[C@@H](NC(=O)c2nnc(Cc3ccccc3)[nH]2)COc2ccccc21 [GSK2982772, (S)-5-benzyl-N-(5-methyl-4-oxo-2,3,4,5-tetrahydrobenzo[b][1,4]oxazepin-3-yl)-4H-1,2,4-triazole-3-carboxamide, reference compound] | 39.13 ± 11.8 | 10 to 100 | 5560 | 4320 | 1.5 | 3.28 | 21700 ± 6530 | 4.03 ± 1.05 | 5820 ± 1210 | 3.06 ± 0.41 | – | – | – | – | – | – | – | – | –
2 | Cn1cc(C#Cc2cc3c4c(c2)CCN4C(=O)C(NC(=O)c2ncn(Cc4c(F)cccc4F)n2)CC3)cn1 (stereo not drawn) [III-1, 1-(2,6-difluorobenzyl)-N-(9-((1-methyl-1H-pyrazol-4-yl)ethynyl)-4-oxo-1,2,3,4,6,7-hexahydroazepino[3,2,1-hi]indol-3-yl)-1H-1,2,4-triazole-3-carboxamide] | 111.92 ± 11.87 | < 5 | – | – | – | – | – | – | – | – | 1980 ± 204 | 1430 ± 181 | 5.54 ± 2.45 | 2.38 ± 1.76 | 22600 ± 2370 | 3.7 ± 0.39 | 4100 ± 520 | 2.94 ± 0.16 | –
3 | Cn1cc(C#Cc2cc3c4c(c2)CCN4C(=O)C(NC(=O)c2ncn(Cc4cc(F)ccc4F)n2)CC3)cn1 (stereo not drawn) [III-10, 1-(2,5-difluorobenzyl)-N-(9-((1-methyl-1H-pyrazol-4-yl)ethynyl)-4-oxo-1,2,3,4,6,7-hexahydroazepino[3,2,1-hi]indol-3-yl)-1H-1,2,4-triazole-3-carboxamide] | 51.37 ± 3.03 | < 5 | – | – | – | – | – | – | – | – | 5340 ± 1330 | 1940 ± 319 | 1.6 ± 0.39 | 2.37 ± 0.64 | 27700 ± 1560 | 3.01 ± 0.18 | 4660 ± 132 | 2.57 ± 0.69 | –
4 | Cn1cc(C#Cc2cc3c4c(c2)CCN4C(=O)C(NC(=O)c2ncn(Cc4ccc(F)c(F)c4)n2)CC3)cn1 (stereo not drawn) [III-12, 1-(3,4-difluorobenzyl)-N-(9-((1-methyl-1H-pyrazol-4-yl)ethynyl)-4-oxo-1,2,3,4,6,7-hexahydroazepino[3,2,1-hi]indol-3-yl)-1H-1,2,4-triazole-3-carboxamide] | 64.54 ± 10.10 | 5 to 10 | – | – | – | – | – | – | – | – | 8830 ± 1290 | 1300 ± 23.2 | 0.91 ± 0.18 | 5.78 ± 2.23 | 60400 ± 9300 | 1.39 ± 0.2 | 7330 ± 781 | 3.19 ± 0.52 | –
5 | O=C(NC1CCc2cc(C#Cc3cnn(C(F)F)c3)cc3c2N(CC3)C1=O)c1ncn(Cc2c(F)cccc2F)n1 (stereo not drawn) [III-17, 1-(2,6-difluorobenzyl)-N-(9-((1-(difluoromethyl)-1H-pyrazol-4-yl)ethynyl)-4-oxo-1,2,3,4,6,7-hexahydroazepino[3,2,1-hi]indol-3-yl)-1H-1,2,4-triazole-3-carboxamide] | – | – | – | – | – | – | – | – | – | – | – | – | – | – | – | – | – | – | < 5
6 | O=C(NC1CCc2cc(C#Cc3cnn(C(F)F)c3)cc3c2N(CC3)C1=O)c1ncn(Cc2cc(F)ccc2F)n1 (stereo not drawn) [III-19, 1-(2,5-difluorobenzyl)-N-(9-((1-(difluoromethyl)-1H-pyrazol-4-yl)ethynyl)-4-oxo-1,2,3,4,6,7-hexahydroazepino[3,2,1-hi]indol-3-yl)-1H-1,2,4-triazole-3-carboxamide] | 121.33 ± 40.32 | 5 to 10 | – | – | – | – | – | – | – | – | 703 ± 191 | 662 ± 110 | 12.2 ± 3.04 | 1.37 ± 0.2 | 8130 ± 3570 | 10.3 ± 3.12 | 1480 ± 545 | 2.96 ± 0.69 | –
7 | O=C(NC1CCc2cc(C#Cc3cnn(C(F)F)c3)cc3c2N(CC3)C1=O)c1ncn(Cc2ccccc2F)n1 (stereo not drawn) [III-21, N-(9-((1-(difluoromethyl)-1H-pyrazol-4-yl)ethynyl)-4-oxo-1,2,3,4,6,7-hexahydroazepino[3,2,1-hi]indol-3-yl)-1-(2-fluorobenzyl)-1H-1,2,4-triazole-3-carboxamide] | 97.15 ± 40.17 | < 5 | – | – | – | – | – | – | – | – | 651 ± 66.4 | 619 ± 65.8 | 12.8 ± 1.27 | 1.19 ± 0.1 | 6250 ± 2790 | 14.9 ± 6.92 | 1280 ± 509 | 2.66 ± 0.69 | –
8 | C#Cc1cc2c3c(c1)CCN3C(=O)C(NC(=O)c1ncn(Cc3c(F)cccc3F)n1)CC2 (stereo not drawn) [III-26, 1-(2,6-difluorobenzyl)-N-(9-ethynyl-4-oxo-1,2,3,4,6,7-hexahydroazepino[3,2,1-hi]indol-3-yl)-1H-1,2,4-triazole-3-carboxamide] | 51.2 ± 3.29 | < 5 | – | – | – | – | – | – | – | – | 550 ± 34.5 | 896 ± 158 | 15.2 ± 0.98 | 0.44 ± 0.03 | 2810 ± 177 | 29.6 ± 1.95 | 1370 ± 389 | 3.98 ± 2.49 | –
9 | N-(9-((1-(difluoromethyl)-1H-pyrazol-4-yl)ethynyl)-4-oxo-1,2,3,4,6,7-hexahydroazepino[3,2,1-hi]indol-3-yl)-1-(4-methylbenzyl)-1H-1,2,4-triazole-3-carboxamide [III-25] | – | – | – | – | – | – | – | – | – | – | – | – | – | – | – | – | – | – | 10 to 100
